Assays:
[1] = tested on: sPLA2; experiment: Serum sPLA2 concentration in humans, A-002 twice a day (Example 4); type: in vivo, human; conditions: ITT population, week 8
Description: (§1) 204 human subjects from the United States with CVD, specifically stable coronary artery disease, were randomized to receive placebo or A-002 via oral administration twice a day over an eight week administration period at dosages of 50 mg, 100 mg, 250 mg, or 500 mg. Levels of various lipids and inflammatory markers were measured at the outset of the trial and at the end of weeks four and/or eight. For data sets with a normal distribution, mean levels of lipids or inflammatory markers were analyzed. For data sets with non-normal distribution, median levels were analyzed. […] In addition, administration of A-002 decreased median levels of CRP (Table 11).

[2] = tested on: human subjects with CVD, specifically stable coronary artery disease; experiment: Serum lipid levels in humans, A-002 twice a day for eight weeks (Example 4); type: in vivo
Description: as §1
The combined effect of A-002 and statin administration on LDL levels was tested in a population of 332 subjects. This population consisted of the original 204 United States subjects, plus an additional 128 subjects from the Ukraine with stable CAD that received placebo or A-002 based according to the same protocol as the United States subjects. […] Similarly, A-002 decreased LDL levels in subjects receiving a variety of non-statin compounds used in the treatment of CVD, including ezetimibe, AEGR-733/ezetimibe, colesevelam hydrochloride (WelChol®), MK-0524A (Cordaptive®), lisinopril/MC-1 antibody (MC-4232), and Angiotensin Receptor Blocker (ARB)/MC-1 (MC-4262).

[3] = tested on: CRP; experiment: Serum CRP concentration in humans, A-002 once a day (Example 6); type: in vivo, human; conditions: week 8
Description: 135 human subjects over the age of 18 with CVD, specifically stable CAD, were randomized to receive either placebo or one of two dosages (250 mg or 500 mg) of A-002 via once a day oral administration over an eight week time period. 89 of the subjects received A-002, while 46 of the subjects received placebo. Subjects that were receiving statins or other compounds used in the treatment of CVD at the outset of the trial continued to receive those therapeutics throughout the trial. 121 of the 135 subjects were on statins during the trial. There was little variation between dosage groups with respect to age, height, weight, or BMI.
Levels of various lipids and inflammatory markers were measured at the outset of the trial and at weeks two, four, and/or eight weeks after the start of A-002 administration. In addition, plasma A-002 levels were measured at various intervals. Lipids that were measured included LDL, small LDL particle, oxidized LDL, non-HDL cholesterol, total cholesterol, ApoB, and triglycerides. In addition, levels of the inflammatory marker CRP were measured. Lipid and inflammatory marker levels at each timepoint were compared to the baseline measurements to determine the effect of A-002 administration. For data sets with a normal distribution, mean levels of lipids or inflammatory markers were analyzed. For data sets with non-normal distribution, median levels were analyzed. LDL particle size was also assessed.

[4] = tested on: ApoE−/− mice; experiment: En face lesion size in ApoE−/− mice on high fat diet, A-002 and/or statin (Example 3); type: in vivo; conditions: alone or plus 0.02 g/kg pravastatin, 12 weeks
Description: Body weight, plasma total cholesterol, and plasma HDL levels were measured for six groups of twelve ApoE^−/− mice. The mice were then placed on a high fat diet for twelve weeks to allow for formation of significant fatty atherosclerotic plaques. The high fat diet was a modified version of the Western diet (TD.88137, Harlan Teklad, Madison, Wis.) consisting of casein (195 g/kg), DL-methionine (3 g/kg), sucrose (341.44 g/kg), corn starch (150 g/kg), anhydrous milkfat (210 g/kg), cholesterol (1.5 g/kg), cellulose (50 g/kg), mineral mix AlN-76 (Teklad; 35 g/kg), calcium carbonate (4 g/kg), vitamin mix (Teklad #40060; 10 g/kg), ethyoxyquin (antioxidant, 0.04 g/kg), and either 0.0156 g/kg (“low dose”) A-002 (Group A), 1.56 g/kg (“high dose”) A-002 (Group B), 0.02 g/kg pravastatin (Group C), low dose A-002 plus 0.02 g/kg pravastatin (Group D), high dose A-002 plus 0.02 g/kg pravastatin (Group E), or vehicle only (Group F). Mice were administered diets A-F in a blinded manner, and food was provided ad libitum. The diet was initially prepared based on the assumption that each mouse weighed 22.5 g and ate 4.5 g/day. Based on body weight and food consumption, the diet was modified over the 12 week course of treatment to adjust for a body weight of 26 g and a food intake of 2.5 g/day. The dosages of A-002 were selected to cover a range of 100-fold based on pharmacokinetics in ApoE^−/− mice as well as toxicology and previously observed efficacy in this model.
After twelve weeks, mice were sacrificed and plasma, heart tissue, and aortic tissue were collected. En face lesion size was determined via digital imaging analysis. Plaque content (as measured as en face lesion) was reduced in mice administered A-002 alone, statin alone, or A-002 in combination with statin. The reduction in plaque content in mice administered A-002 plus statin was substantially greater than the reduction in mice administered either compound alone (Table 2, compare Group D vs. Groups A and C; Group E vs. Groups B and C). Further, the reduction in plaque content in mice administered A-002 plus statin was substantially greater than the sum of the reduction in plaque content in mice administered A-002 alone and mice administered statin alone.

[5] = diabetic subpopulation, week 8, A-002 twice a day
[6] = ezetimibe subpopulation (ezetimibe 10 mg), week 8, A-002 twice a day
[7] = metabolic syndrome subpopulation, week 8, A-002 twice a day
[8] = non-statin subpopulation with baseline serum LDL greater than or equal to 72 mg/dl, week 8, A-002 twice a day
[9] = non-statin subpopulation, week 4, A-002 twice a day
[10] = non-statin subpopulation, week 8, A-002 twice a day
[11] = serum, ITT population, week 8, A-002 50-500 mg twice a day
[12] = serum, ITT population, week 8, A-002 twice a day
[13] = statin subpopulation (US + Ukraine), week 4, A-002 twice a day
[14] = statin subpopulation (US + Ukraine), week 8, A-002 twice a day
[15] = statin subpopulation (US), week 8, A-002 twice a day
[16] = statin subpopulation with baseline serum LDL greater than or equal to 72 mg/dl, week 8, A-002 twice a day
[17] = subpopulation with baseline serum LDL greater than or equal to 72 mg/dl, week 8, A-002 twice a day
[18] = summary Table 20, A-002 alone, statin alone or A-002 plus statin
[19] = statin subpopulation with baseline serum LDL greater than 70 mg/dl
[20] = high dose A-002 (1.56 g/kg diet)
[21] = low dose A-002 (0.0156 g/kg diet)

SMILES: CCc1c(C(=O)C(N)=O)c2c(OCC(=O)OC)cccc2n1Cc1ccccc1 [A-002, [[3-(2-Amino-1,2-dioxoethyl)-2-ethyl-1-(phenylmethyl)-1H-indol-4-yl]oxy]acetic acid methyl ester]
- % change vs. baseline (median [sPLA2]) [1]: −86.96%
- Change in median [sPLA2] vs. baseline [1]: -2.00 ng/mL
- reduction (decrease) of mean serum small LDL particle levels ([2]; at eight weeks, United States population, text restating Tables 14 and 17): 3.25%
- decrease of mean serum LDL levels ([2]; at eight weeks, United States subjects with baseline LDL of 72 mg/dl or greater, text restating Tables 15 and 19): 8.23%
- decrease of mean serum LDL levels ([2]; at week eight, combined United States and Ukraine populations, Tables 16 and 18): 4.22%
- decrease of mean serum LDL levels ([2]; at week four, combined United States and Ukraine populations, Tables 16 and 18): 6.93%
- % change vs. baseline (mean [LDL]) [2, 5]: −16.64%
- Change in mean [LDL] vs. baseline [2, 5]: -10.6 mg/dL
- % change vs. baseline (mean [LDL]) [2, 6]: −17.8%
- Change in mean [LDL] vs. baseline [2, 6]: -15.4 mg/dL
- % change vs. baseline (median [TG]) [2, 7]: −13.99%
- Change in median [TG] vs. baseline [2, 7]: -24.0 mg/dL
- % change vs. baseline (mean [LDL]) [2, 8]: −8.23%
- Change in mean [LDL] vs. baseline [2, 8]: -9.2 mg/dL
- % change vs. baseline (mean [LDL]) [2, 9]: −6.93%
- Change in mean [LDL] vs. baseline [2, 9]: -8.7 mg/dL
- % change vs. baseline (mean [LDL]) [2, 10]: −4.22%
- % change vs. baseline (mean [small LDL particle]) [2, 10]: −3.25%
- Change in mean [LDL] vs. baseline [2, 10]: -5.3 mg/dL
- Change in mean [small LDL particle] vs. baseline [2, 10]: -24.0 nmol/L
- % change vs. baseline (mean [LDL]) [2, 11]: −10.68%
- Change in mean [LDL] vs. baseline [2, 11]: -8.2 mg/dL
- % change vs. baseline (mean [LDL particle]) [2, 12]: −7.13%
- % change vs. baseline (mean [TG]) [2, 12]: −6.67%
- % change vs. baseline (mean [small LDL particle]) [2, 12]: −8.33%
- % change vs. baseline (mean [total cholesterol]) [2, 12]: −8.16%
- Change in mean [LDL particle] vs. baseline [2, 12]: -73.6 nmol/L
- Change in mean [TG] vs. baseline [2, 12]: -10.1 mg/dL
- Change in mean [small LDL particle] vs. baseline [2, 12]: -61.3 nmol/L
- Change in mean [total cholesterol] vs. baseline [2, 12]: -12.8 mg/dL
- % change vs. baseline (mean [LDL]) [2, 13]: −14.04%
- Change in mean [LDL] vs. baseline [2, 13]: -10.8 mg/dL
- % change vs. baseline (mean [LDL]) [2, 14]: −12.48%
- Change in mean [LDL] vs. baseline [2, 14]: -9.6 mg/dL
- % change vs. baseline (mean [small LDL particle]) [2, 15]: −9.00%
- Change in mean [small LDL particle] vs. baseline [2, 15]: -66.2 nmol/L
- % change vs. baseline (mean [LDL]) [2, 16]: −16.27%
- Change in mean [LDL] vs. baseline [2, 16]: -15.0 mg/dL
- LDL levels in subjects receiving non-statin compounds used in the treatment of CVD ([2]; subjects on ezetimibe, AEGR-733/ezetimibe, colesevelam hydrochloride, MK-0524A, MC-4232 or MC-4262): decreased
- % change vs. baseline (mean [LDL]) [2, 17]: −14.68%
- Change in mean [LDL] vs. baseline [2, 17]: -14.0 mg/dL
- Observed change following administration: Mean serum [LDL] at week 4 [2, 18]: −6.93%
- Observed change following administration: Mean serum [LDL] at week 8 [2, 18]: −4.22%
- Observed change following administration: Mean serum [LDL] in ≧72 mg/dl subpopulation at week 8 [2, 18]: −8.23%
- Observed change following administration: Mean serum [small LDL particle] at week 8 [2, 18]: −3.25%
- Observed change following administration: Mean serum [LDL] at week 8 ([2]; summary Table 22, A-002 alone, ezetimibe alone or A-002 plus ezetimibe): −4.22%
- % change vs. baseline (median [CRP]) ([3]; ITT population): +5.4%
- % change vs. baseline (median [CRP]) [3, 19]: +9.1%
- Change in median [CRP] vs. baseline [3, 19]: +0.10 mg/L
- % change vs. baseline (median [CRP]) ([3]; statin subpopulation): +8.7%
- Change in median [CRP] vs. baseline ([3]; statin subpopulation): +0.10 mg/L
- Change in mean % en face lesion vs. control [4, 20]: −4.158%
- Mean % en face lesion [4, 20]: 1.469%
- Change in mean % en face lesion vs. control [4, 21]: −2.241%
- Mean % en face lesion [4, 21]: 3.386%
